# Experimental data taken from US20080262011A1, “Modulator” (priority 2004, published 2008).
# Read-outs that look alike come from different tables or passages of the source.
# What was measured:
# CB1 receptors = biological target: T1, CB1 receptors (Rattus norvegicus, UniProt P20272); assay: Radioligand binding assay: displacement of [3H]SR141716A from rat cerebellar homogenates
# T1 construct: cerebellar membranes (400 μg wet weight per tube) were thoroughly mixed in a final volume of 0.5 mL; from tissue; host or cells: rat cerebellum (Male Wistar rats), membrane homogenate
# Protocol: SR141716A from rat cerebellar homogenates. […] (M).
# Radioligand binding assays provide a simple measure of activity at the CB1 receptors. For functional activity, the vas deferens or cyclic 3′,5′-adenosine monophosphate (cAMP) assays described below are used. The assays are carried out with a protocol modified from the literature using the CB1 receptor antagonist [^3H] SR141716A (0.5 nM) in rat brain membranes. Male Wistar rats (150-200 g), which were allowed free access to food and water, were used. Briefly, animals were killed by cervical dislocation and cerebella dissected into ice-cold 0.25 M sucrose. Homogenates were prepared by suspension of cerebella in ice-cold 50 mM, pH 7.4 HEPES (assay) buffer using an Ultra-Turrax™ homogeniser. Homogenates were subsequently centrifuged at 45,000 rpm for 15 min at 4° C., and re-suspended in fresh ice-cold assay buffer to give a final concentration of 1 mg/mL wet weight. Compounds under test were dissolved in dimethyl sulfoxide (DMSO) and transferred to 14 mL polypropylene test tubes. [^3H] SR141617A {final concentration of approximately 0.5 nM prepared in assay buffer containing 0.1% v/v tris(2-butoxyethyl)phosphate} and cerebellar membranes (400 μg wet weight per tube) were thoroughly mixed in a final volume of 0.5 mL and incubated for 1 h at 37° C. The tubes were transferred to a Brandel filtration apparatus, 5 mL ice-cold assay buffer added, and the tube contents vacuum-aspirated through Whatman GF/C glass fibre filters. A further 5 mL of ice-cold wash buffer was added to tubes and the wash/vacuum cycle repeated a further three times. The filters were transferred to plastic Mini-PolyQ™ vials, Picofluor™ liquid scintillant added, and radioactivity (dpm) was quantified using a Beckman LS6000 Liquid Scintillation Counter. The concentrations of competing ligand (test compounds) to produce 50% displacement of the radioligand (IC50) from specific binding sites were computed using Origin™, by fitting total bound ligand (y-axis as dpm) against compound concentration (x-axis, log 10[x] as M) to the logistic equation y=a+b/[1+exp{−c(x−IC50)}]. Where a=lower asymptote, b=specific bound and c=slope function.
# central CB1 receptors = biological target: T2, central CB1 receptors (Mus musculus, UniProt P47746); assay: Psychotropic activity: adverse cannabimimetic (tetrad) effects in mice; conditions: in vivo, FIG. 6 legend
# T2 construct: from tissue; host or cells: whole animal (normal mice), CNS
# Protocol: Many CB1 agonists are known to induce psychotropic associated “tetrad effects” due to central binding to CB receptors [Howlett, A. C. et al, International Union of Pharmacology. XXVII, Pharmacol. Rev. 2002, 54, 161-202]. Studies were undertaken to investigate whether the compounds of the present invention also bound to central CB1 receptors. This is assessed by measuring the ability of the compounds to induce sedation, ptosis, hypomotility, catalepsy and hypothermia in normal mice [Brooks, J. W. et al, Eur. J. Pharmacol. 2002, 439, 83-92], following i.v., i.p. and oral administration.
# T1 sequence (P20272 whole entry): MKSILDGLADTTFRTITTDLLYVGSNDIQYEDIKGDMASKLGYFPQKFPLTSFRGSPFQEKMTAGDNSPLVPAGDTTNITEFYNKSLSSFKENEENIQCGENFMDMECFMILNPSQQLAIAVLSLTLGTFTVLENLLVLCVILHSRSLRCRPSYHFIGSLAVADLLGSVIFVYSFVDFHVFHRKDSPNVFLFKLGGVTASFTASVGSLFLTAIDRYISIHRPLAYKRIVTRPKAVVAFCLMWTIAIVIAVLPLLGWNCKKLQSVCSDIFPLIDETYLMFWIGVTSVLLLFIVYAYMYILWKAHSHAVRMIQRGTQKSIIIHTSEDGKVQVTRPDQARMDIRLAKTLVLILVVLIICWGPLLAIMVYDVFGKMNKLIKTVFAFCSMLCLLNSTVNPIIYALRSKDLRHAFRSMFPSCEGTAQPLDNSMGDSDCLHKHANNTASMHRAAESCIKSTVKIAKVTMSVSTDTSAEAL
# T2 sequence (P47746 whole entry): as the sequence (P20272 whole entry) above, with E95D counted along it
structure (smiles),measurement,setting,value
"CCCCCCC(C)(C)c1ccc(-c2cccc(O)c2)c(O)c1 [VSN13, 4-(1,1-Dimethylheptyl)-1,1′-biphenyl-2,3′-diol]",IC50,CB1 receptors,1500 nM
same,adverse cannabimimetic effects,central CB1 receptors,does not exhibit adverse cannabimimetic effects
"CCCCCCC(C)(C)c1ccc(-c2cccnc2)c(O)c1 [VSN26, 5-(1,1-Dimethylheptyl)-2-pyridin-3-yl phenol]",IC50,CB1 receptors,3600 nM
"CCCCCCC(C)(C)c1ccc(-c2ccncc2)c(O)c1 [VSN27, 5-(1,1-Dimethylheptyl)-2-pyridin-4-yl phenol]",IC50,CB1 receptors,1600 nM
"CCCCCCC(C)(C)c1ccc(-c2cc(Cl)cc(Cl)c2)c(O)c1 [VSN28, 3′,5′-Dichloro-4-(1,1-dimethylheptyl)-1,1′-biphenyl-2-ol]",IC50,CB1 receptors,2200 nM
"CCCCCCC(C)(C)c1ccc(-c2cc(C)cc(C)c2)c(O)c1 [VSN29, 3′,5′-Dimethyl-4-(1,1-dimethylheptyl)-1,1′-biphenyl-2-ol]",IC50,CB1 receptors,200 nM
"CCCCCCC(C)(C)c1ccc(-c2cccc(NC(C)=O)c2)c(O)c1 [VSN30, N-[4′-(1,1-dimethylheptyl)-2′-hydroxy-1,1′-biphenyl-3-yl]-acetamide]",IC50,CB1 receptors,24600 nM
"CCCCCCC(C)(C)c1ccc(-c2cccc(CO)c2)c(O)c1 [VSN31, 4-(1,1-Dimethylheptyl)-3′-(hydroxymethyl)-1,1′-biphenyl-2-ol]",IC50,CB1 receptors,1600 nM
CN(C)C(=O)CCCCC(C)(C)c1ccc(-c2cccc(O)c2)c(O)c1 [VSN32],IC50,"CB1 receptors; displacement of [3H]SR141716A (0.5 nM), rat cerebellar membranes, read-out: IC50",500 nM
